In patent publication US10813980B2, “Methods for treating osteoarthritis by administering linked variants of growth hormone and somatostatin” (REGULAXIS, priority 2016, dated 2020):
Values joined by “and” are separate entries in the source; they are usually repeats but may differ in a detail not shown here. Identical values can stand only once. No end group written: not given here.

Tests used:
[1] = system: male Duncan-Hartley guinea pigs; assay: In vivo efficiency in guinea pig spontaneous knee osteoarthritis, intra-articular injection, histological analysis; details: for cartilage thickness / sum of the scores representing the degradation of several structures in the joint (total scoring of degradation parameters): five month after intra-articular injection of 50 μl per knee; for cartilage thickness: * p<0.05; for sum of the scores representing the degradation of several structures in the joint (total scoring of degradation parameters): peptide 10^−7 M, vs control and hyaluronic acid alone
Description: Peptide of the invention (corresponding to SEQ ID NO: 4) was dissolved at 2.5 mg/ml in water for injection (CDM Lavoisier) to make a stock solution conserved at −20° C. The syringe was prepared by aspiration of 50 μl of peptide work solution prepared just before use at 10^−7 M (other concentrations are tested) in NaCl 0.9% and kept on ice until use.
The study was performed on male Duncan-Hartley guinea pigs (Harlan), whose particularity is to be affected with age of spontaneous and progressive degeneration of the knee that closely resembles knee osteoarthritis (OA) in humans. Seven 5-month-old animals (weighing 879 g.+/−58.1) were injected per group. Animals were treated in accordance with institutional animal care guidelines. Animals were anesthetized with an anesthesia module (Minerva) with a rapid induction device (4% isoflurane) and anesthesia was maintained using a specific device mask in guinea coaxial (2.5% isoflurane). 50 μl of the peptide of the invention or control—salt solution or Hyalgan® (10 mg/ml solution of MW 500-730 kDa hyaluronic—Laboratoire Expanscience, available in the market)—were injected on each hind legs of the animal into the joint space from the lateral side using a 29 G needle. This was followed by passive knee joint movements to facilitate the intra-articular distribution of the solution.
Five month after injection, the two knee joints from each animal were fixed for 36 to 48 hours in 10% buffered formalin then kept in 70% ethanol and followed by decalcification in 15% EDTA in phosphate buffer. Paraffin sections (3-4 μm) of the central region of the joint were stained with haematoxylin and eosin for histological analyses of cartilage structure, namely: loss of cartilage matrix, cellular abnormalities, appearance of articular cartilage mineralization front, formation of osteophytes and synovial membrane (microscopy: Nikon 80i). A semi-quantitative modified Mankin histological grading system was used to evaluate OA severity (Kraus et al., The OARSI histopathology initiative recommendations for histological assessments of osteoarthritis in the Guinea Pig. Osteoarthritis Cartilage, 2010 (18 S3) S35-S52). The articular cartilage area was analyzed quantitatively by immunohistochemistry (Pastoureau et al., Cartilage, bone and synovial histomorphometry in animal models of osteoarthritis. Osteoarthritis Cartilage. 2010 October; 18 Suppl 3:S106-12). Sections of guinea pig knees were stained with monoclonal antibody (monoclonal anti-chicken mouse collagen II, 6B3 clone—reference MAB887/250, Millipore). The measurement of the total area of articular cartilage was performed with Color deconvolution H DAB and Siox and the measurement of joint height by ImageJ (“Fit Ellipse” module). Statistical analyzes of scoring and quantification results were performed using a Kruskal-Wallis test followed by Dunn's test using PRISM software.

[2] = Raman scattering measurements of peptide conformation (stability of the peptide); type: physicochemical; details: in water, peptide 0.9 mM, with or without HA 1%
Description: Peptide alone, at a concentration of 0.9 mM (2.5 mg/ml), was dissolved in a Millipore filter treated water. Peptide+HA solution consists of peptide dissolved at 0.9 mM in a solution of HA (1.8 MDa) at 1% (10 mg/ml) in water.
Samples were placed in a suprasil quartz cell (5 mm path length) and excited by the 488 nm line of an Ar+ laser (Spectra Physics, CA, USA) with a ˜200 mW power at the sample. Scattered light at right angle was analyzed on a Jobin-Yvon T64000 (HORIBA Jobin-Yvon, France) in a single spectrograph configuration with a 1200 grooves per mm holographic grating and a holographic notch filter. Stokes Raman data were collected by means of a liquid nitrogen cooled CCD detection system (Spectrum One, Jobin-Yvon, France). The effective spectral slit width was set to ˜5 cm^−1. Each recorded spectrum corresponds to a total acquisition time of 1200 s. Buffer subtraction and smoothing of the observed Raman spectra could be performed using the GRAMS/AI package (Thermoage Galactic, MA, USA). The final presentation of these spectra was performed by means of SigmaPlot package (Systat Software Inc., CA, USA).

[3] = listed as peptide of the invention
[4] = five month after intra-articular injection, medial tibial surface of the knee, compared with sham (and HA)

GTSDRVYEKLAGSKNFFWKTFTSS [SEQ ID NO: 4]
cartilage thickness [1]: increased cartilage thickness
cartilage thickness [1, 3]: increase in the thickness of the cartilage
sum of the scores representing the degradation of several structures in the joint (total scoring of degradation parameters) [1]: significantly decreased degradation of cartilage structure
sum of the scores representing the degradation of several structures in the joint (total scoring of degradation parameters) [1, 3]: lowest
osteophytes scoring ([1]; five month after intra-articular injection, ** p<0.001): decreased osteophytes scoring
type II Collagen content (staining) ([1]; five month after intra-articular injection, immunohistochemistry, compared with sham (and HA)): greater synthesis of type II collagen
cartilage structure scoring (cartilage structural damage) [1, 4]: lowest severity
proteoglycan content (proteoglycan loss) [1, 4]: lowest severity
secondary conformation / structure stability by Raman spectra [2]: unstable structure in water
secondary conformation / structure stability by Raman spectra ([2]; listed as peptide alone): Several (4) secondary conformations and 4 major bands
